According to US20100323890A1, “METHOD FOR IMPROVING THE RESISTANCE OF PLANTS TO STRESS AND CORRESPONDING PRODUCTS” (priority 2007, published 2010):

Tested on: Arabidopsis thaliana
Assay: Arabidopsis thaliana seedling growth on culture medium containing 1 μM atrazine (atrazine tolerance)
Type: in vivo
Details: 15 days of incubation
Procedure: In this context, a mixture of sucrose and putrescine were tested. […] For a first control, no carbohydrate or polyamine were added to the culture medium. For a second control, only sucrose, at a rate of 3%, which is equivalent to a concentration of 87 millimolar, was added thereto. Finally, for a test according to the present invention, sucrose, at a rate of 3% and putrescine, at a rate of 3 to 6 mM, were added to the culture medium. The Petri dishes were stored for 48 hrs at 4° C. and transferred to 22° C. for a photoperiod of 16 hours per day at 4500 lux. The parameters characterizing the plant growth were referenced after 15 days of incubation: the biomass (% fresh weight) and chlorophyll (μg/seedling) produced were determined; the development of the main root (cm) and the secondary root system (primordia/seedlings) were recorded.

CCNc1nc(Cl)nc(NC(C)C)n1 [atrazine, 2-chloro-4-ethylamino-6-isopropylamine-1,3,5-triazine]
seedling development in the presence of atrazine (FIG. 1) (no carbohydrate or polyamine added): unable to develop the photosynthetic apparatus

OC[C@H]1O[C@@](CO)(O[C@H]2O[C@H](CO)[C@@H](O)[C@H](O)[C@H]2O)[C@@H](O)[C@@H]1O [sucrose]
effect on atrazine inhibition / atrazine resistance, by size of the seedlings (FIG. 1): makes it possible to lift the atrazine inhibition effect
